US20100093645A1, “SMAC Peptidomimetics and the Uses Thereof” (priority 2004, published 2010)
“And” between values parts separate entries of the source, which are not always exact repeats. Equal values may be shown once. Read-outs that look alike come from different tables or passages of the source. Each block holds one compound with its values, some of them ahead of it. Square brackets hold non-standard residues; d marks the D form. Peptide text beside a SMILES is read from it. * marks the point of attachment. 6FAM = O=C1OC2(c3ccc(O)cc3Oc3cc(O)ccc32)c2cc(C(=O)*)ccc21; Abu = CC[C@H](N)C(=O)O; NHPr = CCCN*

Tests used:
PC-3 cells [1] = assay: Apoptosis by Annexin V-FITC staining in PC-3 cells, alone or with CDDP; type: cell-based, human
Description: […]. […] […]. The experiment used PC-3 cells which express high levels of XIAP and cIAP-1/2 proteins and cisplatin (CDDP) as the chemotherapeutic drug. CDDP is a DNA damaging agent and can effectively induce apoptosis in PC-3 cells and is also a clinically used chemotherapeutic drug for prostate cancer.
PC-3 cells were treated with CDDP, Smac peptides and peptidomimetics alone or in combination for 42 hours and apoptosis was analyzed by Annexin V-FITC staining. […] Combination of 25 μM CDDP and 10 μM or 25 μM SH-97 induced 29.3%±1.9% and 35.8%±0.4% apoptosis over control cells, respectively (FIG. 6A). […].
In a similar experiment, PC-3 cells were treated with the Smac peptidomimetic CJ-445 (Table 3) and CDDP as described above. Combination of 25 μM CDDP and 5 μM or 10 μM CJ-445 induced about 30% and about 35% apoptosis over control cells, respectively (FIG. 7).

[2] = test system: MDA-231 breast cancer cells; assay: Apoptosis by Annexin V-FITC/propidium iodide flow cytometry in MDA-231 cells, alone or with CDDP; type: cell-based, human; conditions: 42 hours
Description: Another experiment was carried out in which MDA-231 breast cancer cells in 6-well plates were treated with SH-97 and CDDP, alone or in combination, for 42 hours. Cells were collected and stained with Annexin V-FITC and propidium iodide. The fluorescence of individual cells was analyzed by flow cytometry. 25 and 50 μM CDDP induced about 30% and about 45%, respectively, of cancer cells to undergo apoptosis as compared to control cells (FIG. 8). Combination of 25 or 50 μM CDDP and 10 μM SH-97 induced about 50% and 90% apoptosis over control cells, respectively (FIG. 8). […] (FIG. 8).

[3] = molecular target: T1, human XIAP-BIR3 protein (residues 241-356) (Homo sapiens, UniProt P98170); assay: biochemical
Target sequence in this assay (P98170 241-356): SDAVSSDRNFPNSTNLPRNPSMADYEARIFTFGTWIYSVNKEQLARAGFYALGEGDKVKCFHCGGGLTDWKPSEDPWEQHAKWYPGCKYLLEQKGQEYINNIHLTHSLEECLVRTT

[4] = test system: MDA-231 breast cancer cell line; assay: MTT cell viability assay in MDA-231 cells; type: cell-based; conditions: Homo sapiens, MDA-MB-231, 120 h, read-out: EC50 growth inhibition
Description: (§1) . The cells were then incubated at 37 C with 5% CO2 for 5 days, followed by detection of cell viability with the MTT assay. Untreated cells were used as 100% growth. […].

PC-3 cells [5] = assay: MTT cell viability assay in PC-3 cells; type: cell-based; conditions: Homo sapiens
Description: as §1

PC-3 cells [6] = assay: Clonogenic assay with X-ray radiation in PC-3 cells
[7] = molecular target: T1, human XIAP-BIR3 protein (residues 241-356); assay: Fluorescence polarization saturation (direct) binding of labeled Smac peptides; conditions: 5 nM labeled peptide, protein 0 to 40 μM, read-out: Kd value (dissociation constant) to XIAP-BIR3
[8] = molecular target: human XIAP-BIR3 protein (residues 241-356) with a His tag (human) (UniProt P98170); assay: fluorescence polarization, saturation; 5 nM peptide titrated with 0 to 40 µM protein
[9] = molecular target: human XIAP-BIR3 protein (residues 241-356) with a His tag (human) (UniProt P98170); assay: fluorescence polarization; 5 nM SM5F and 0.030 µM XIAP-BIR3
[10] = molecular target: human XIAP-BIR3 protein (residues 241-356) with a His tag (human) (UniProt P98170); assay: fluorescence polarization, saturation; against S9F as reference
[11] = molecular target: human XIAP-BIR3 protein (residues 241-356) with a His tag (human) (UniProt P98170); assay: competitive fluorescence polarization, SM5F tracer; against S9 as reference
[12] = PC-3, MTT, read-out: EC50 growth inhibition
[13] = 10 μM compound + 25 μM CDDP, 42 hours

Chain of human XIAP-BIR3 protein (residues 241-356) with a His tag (human) (P98170 241-356 limits assumed): as the sequence (P98170 241-356) above

Compound: [NH2][Pt]([NH2])([Cl])[Cl] [CDDP, cisplatin, reference compound]
- apoptosis as compared to control cells (PC-3 cells [1]; 25 μM CDDP alone, 42 hours): 12-15%
- apoptosis as compared to control cells ([2]; 25 μM CDDP alone): about 30%
- apoptosis as compared to control cells ([2]; 50 μM CDDP alone): about 45%

Compound: CC(C)[C@H](NC(=O)[C@H](C)N)C(=O)N1CCC[C@H]1C(=O)NCCc1c[nH]c2ccccc12 [CJ-376]
- Ki [3]: 3.99 µM

Compound: COc1ccc(CNC(=O)[C@@H]2CCCN2C(=O)[C@@H](NC(=O)[C@H](C)N)C(C)C)cc1 [CJ-412]
- Ki [3]: 11.7 µM

Compound: COc1ccccc1CNC(=O)[C@@H]1CCCN1C(=O)[C@@H](NC(=O)[C@H](C)N)C(C)C [CJ-414]
- Ki [3]: 3.88 µM

Compound: CCNC(=O)[C@@H]1CCCN1C(=O)[C@@H](NC(=O)[C@H](C)N)C(C)C [CJ-418] (H-Ala-Val-Pro-NHEt)
- Ki [3]: 55.3 µM

Compound: CC[C@H](N)C(=O)N[C@H](C(=O)N1CCC[C@H]1C(=O)NC(c1ccccc1)c1ccccc1)c1ccccc1 [CJ-444]
- EC50 ([4]; 5 days, MTT): 120 to 130 µM
- EC50 (PC-3 cells [5]; [12]): 120 to 130 µM
- Ki [3]: 13.5 µM

Compound: C[C@H](N)C(=O)N[C@H](C(=O)N1CCC[C@H]1C(=O)NC(c1ccccc1)c1ccccc1)c1ccccc1 [CJ-450]
- EC50 ([4]; 5 days, MTT): 120 to 130 µM
- EC50 (PC-3 cells [5]; [12]): 120 to 130 µM
- Ki [3]: 10.4 µM

Compound: C[C@H](N)C(=O)N[C@H](C(=O)N1CCC[C@H]1C(=O)NC(c1ccccc1)c1ccccc1)C1CCCCC1 [CJ-451]
- EC50 [4]: 120 to 130 µM
- EC50 (PC-3 cells [5]; PC-3, read-out: EC50 growth inhibition): 120 to 130 µM

Compound: CNC(=O)[C@@H]1CCCN1C(=O)[C@@H](NC(=O)[C@H](C)N)C(C)C [CJ-452] (H-Ala-Val-Pro-NHMe)
- Ki [3]: 80.9 µM

Compound: CCCNC(=O)[C@@H]1CCCN1C(=O)[C@@H](NC(=O)[C@H](C)N)C(C)C [CJ-453] (H-Ala-Val-Pro-NHPr)
- Ki [3]: 49.2 µM

Compound: CC(C)[C@H](NC(=O)[C@H](C)N)C(=O)N1CCCC[C@H]1C(=O)NC(c1ccccc1)c1ccccc1 [CJ-458]
- Ki [3]: 160 µM

Compound: C[C@H](N)C(=O)N[C@H](C(=O)N1CCC[C@@H]1C(=O)NC(c1ccccc1)c1ccccc1)C1CC1 [CJ-464-2]
- Ki [3]: 3.54 µM

Compound: CC(C)[C@H](NC(=O)[C@H](C)N)C(=O)N1CCC[C@H]1C(=O)NCc1c[nH]c2ccccc12 [CJ-488]
- Ki [3]: 41 µM

Compound: CC(C)[C@H](NC(=O)[C@H](C)N)C(=O)N1CCC[C@H]1C(=O)NC(c1ccccc1)c1ccccc1 [Compound 11]
- EC50 [4]: 120 to 130 µM

Compound: CC[C@H](N)C(=O)N[C@H](C(=O)N1CCC[C@H]1C(=O)NC(c1ccccc1)c1ccccc1)C(C)C [Compound 16]
- EC50 [4]: 120 to 130 µM
- radiosensitization compared with Smac8-C (PC-3 cells [6]; 10 μM SH-97 vs 100 μM Smac8-C, 6 and 8 Gy): more effective than 100 μM of the cell-permeable Smac peptide Smac8-C
- reduction of colony formation as compared to radiation alone (PC-3 cells [6]; 6 Gy, 10 μM compound): more than 10 fold
- reduction of colony formation as compared to radiation alone (PC-3 cells [6]; 6 Gy, 25 μM compound): more than 10 fold
- reduction of colony formation as compared to radiation alone (PC-3 cells [6]; 8 Gy, 10 μM compound): 40 fold
- reduction of colony formation as compared to radiation alone (PC-3 cells [6]; 8 Gy, 25 μM compound): 50 fold
- effect on activity of X-ray radiation (PC-3 cells [6]; 10 and 25 μM SH-97, 100 μM Smac8-C): significantly increased the activity of the radiation
- effect on colony formation by compound itself (PC-3 cells [6]; without radiation, 10 days): no significant effect
- apoptosis over control cells (PC-3 cells [1]; [13]): 29.3%±1.9%
- apoptosis over control cells (PC-3 cells [1]; 25 μM compound + 25 μM CDDP, 42 hours): 35.8%±0.4%
- apoptosis induction by compound alone (PC-3 cells [1]; alone, 42 hours, SH-97 up to 50 μM): did not induce significantly more apoptosis
- apoptosis over control cells ([2]; 10 μM compound + 25 μM CDDP): about 50%
- apoptosis over control cells ([2]; 10 μM compound + 50 μM CDDP): ~90%

Compound: CC(C)[C@H](NC(=O)[C@H](C)N)C(=O)N1CCC[C@H]1CCc1ccccc1 [SH-64]
- Ki [3]: > 200 µM

Compound: CC(C)[C@H](NC(=O)[C@H](C)N)C(=O)N1CCC[C@H]1CNCc1ccccc1 [SH-80]
- Ki [3]: 25.7 µM

Compound: CC(C)[C@H](NC(=O)[C@H](C)N)C(=O)N1CCC[C@@H]1CNCc1ccccc1 [SH-81]
- Ki [3]: > 200 µM

Compound: CC(C)[C@H](NC(=O)[C@H](C)N)C(=O)N1CCC[C@H]1COC(c1ccccc1)c1ccccc1 [SH-106]
- Ki [3]: 5.47 µM

Compound: CC[C@H](N)C(=O)N[C@@H](CCCNC(=N)N)C(=O)N1CCC[C@H]1C(=O)N[C@@H](Cc1ccccc1)C(=O)N[C@@H](CCCCNC(=O)c1ccc2c(c1)C1(OC2=O)c2ccc(O)cc2Oc2cc(O)ccc21)C(N)=O [SM5F, AbuRPFK-FAM] (H-[Abu]RPFK(6FAM)-NH2; N-terminus and C-terminus assumed)
- Kd [7]: 0.018 µM and 0.0179 µM

Compound: AVPIAQKS [Smac-8, reference compound]
- potentiation of the activity of CDDP in inducing apoptosis (PC-3 cells [1]; negative controls with CDDP): unable to potentiate the activity of CDDP

Compound: AbuRPFK-FAM, termed SM5F (fluorescently labeled mutated 5-mer Smac peptide)
- maximum binding [8]: 276 mP
- percent of tracer saturated [9]: 60%
- fold higher binding affinity than S9F [10]: 10 fold
- ratio of the Kd values between SM5F and S9F [10]: 7.2 fold

Compound: unlabeled mutated Smac 5-mer peptide (SM5), AbuRPFK
- ratio of the IC50 values for SM5 and S9 [11]: 6.7 fold

Now from value to compound, other results behind:

- Ki [3]: 3.21 µM
Compound: Cc1ccc(CNC(=O)[C@@H]2CCCN2C(=O)[C@@H](NC(=O)[C@H](C)N)C(C)C)cc1 [CJ-409]

- Ki [3]: 1.19 µM
Compound: Cc1cccc(CNC(=O)[C@@H]2CCCN2C(=O)[C@@H](NC(=O)[C@H](C)N)C(C)C)c1 [CJ-410]

- Ki [3]: 0.54 µM
Compound: Cc1ccccc1CNC(=O)[C@@H]1CCCN1C(=O)[C@@H](NC(=O)[C@H](C)N)C(C)C [CJ-411]

- Ki [3]: 2.92 µM
Compound: COc1cccc(CNC(=O)[C@@H]2CCCN2C(=O)[C@@H](NC(=O)[C@H](C)N)C(C)C)c1 [CJ-413]

- Ki [3]: 0.97 µM
Compound: CC(C)[C@H](NC(=O)[C@H](C)N)C(=O)N1CCC[C@H]1C(=O)NCc1ccc(Cl)cc1 [CJ-419]

- Ki [3]: 1.42 µM
Compound: CC(C)[C@H](NC(=O)[C@H](C)N)C(=O)N1CCC[C@H]1C(=O)NCc1cccc(Cl)c1 [CJ-420]

- Ki [3]: 1.73 µM
Compound: CC(C)[C@H](NC(=O)[C@H](C)N)C(=O)N1CCC[C@H]1C(=O)NCc1ccccc1Cl [CJ-421]

- Ki [3]: 1.34 µM
Compound: CC(C)[C@H](NC(=O)[C@H](C)N)C(=O)N1CCC[C@H]1C(=O)NCc1ccc(O)cc1 [CJ-425]

- EC50 ([4]; 5 days, MTT): 120 to 130 µM
- EC50 (PC-3 cells [5]; [12]): 120 to 130 µM
- Ki [3]: 1.13 µM
Compound: CC[C@H](N)C(=O)N[C@H](C(=O)N1CCC[C@H]1C(=O)NC(c1ccccc1)c1ccccc1)C1CCCCC1.Cl [CJ-445]
- apoptosis over control cells (PC-3 cells [1]; 5 μM compound + 25 μM CDDP, 42 hours): about 30%
- apoptosis over control cells (PC-3 cells [1]; [13]): about 35%
- sensitizing PC-3 cells to CDDP-induced apoptosis, compared with Smac8-C (PC-3 cells [1]; 10 μM compound vs 100 μM Smac8-C): as potent as 100 μM Smac8-C

- Ki [3]: 0.37 µM
Compound: C[C@H](N)C(=O)N[C@H](C(=O)N1CCC[C@H]1C(=O)NC(c1ccccc1)c1ccccc1)C1CCCC1 [CJ-467]

- Ki [3]: 0.78 µM
Compound: CC(C)[C@H](NC(=O)[C@H](C)N)C(=O)N1CC[C@H]1C(=O)NC(c1ccccc1)c1ccccc1 [CJ-469]

- Ki [3]: 0.56 µM
Compound: C[C@H](N)C(=O)N[C@@H](CC1CCCCC1)C(=O)N1CCC[C@H]1C(=O)NC(c1ccccc1)c1ccccc1 [CJ-473]

- Ki [3]: 0.7 µM
Compound: CC(C)[C@H](NC(=O)[C@H](C)N)C(=O)N1CCC[C@H]1C(=O)NCc1cccc2ccccc12 [CJ-489]

- Ki [3]: 3.22 µM
Compound: CC(C)[C@H](NC(=O)CN)C(=O)N1CCC[C@H]1CCCc1ccccc1 [SH-82]

- Ki [3]: 3.1 µM
Compound: CC[C@H](N)C(=O)N[C@H](C(=O)N1CCC[C@H]1C(=O)N[C@@H](Cc1ccccc1)c1ccccc1)C(C)C [SH-98]

- Ki [3]: 0.1 µM
Compound: CC[C@H](N)C(=O)N[C@H](C(=O)N1CCC[C@H]1C(=O)N[C@@H](c1ccccc1)c1ccc(CCCOC)cc1)C(C)C [SH-103]
